Laboratory results: PubChem BioAssay AID248 (DTP/NCI, 2004)
Values joined by “and” are separate entries in the source; they are usually repeats but may differ in a detail not shown here. Equal entries are not always repeated. Inconclusive results and toxic doses are left out.

System: L1210 leukemia ip in BDF1 mice, survival T/C
Assay: NCI In Vivo Anticancer Drug Screen. Data for tumor model L1210 Leukemia (intraperitoneal) in B6D2F1 (BDF1) mice
Conditions: endpoint: mean survival time, higher = longer survival
Outline: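 Transplantable tumor model; survival measured in treated vs vehicle control mice. Value = treated/control.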

[1] = dose: 100.0 mg/kg/injection, schedule: Q01DX001 (ip), vehicle: saline
[2] = dose: 200.0 mg/kg/injection, schedule: Q01DX001 (ip), vehicle: saline
[3] = dose: 400.0 mg/kg/injection, schedule: Q01DX001 (ip), vehicle: saline
[4] = dose: 100.0 mg/kg/injection, schedule: Q04DX003 (ip), vehicle: Klucel (hydroxypropylcellulose) (HPC)
[5] = dose: 200.0 mg/kg/injection, schedule: Q04DX003 (ip), vehicle: Klucel (hydroxypropylcellulose) (HPC)
[6] = dose: 400.0 mg/kg/injection, schedule: Q04DX003 (ip), vehicle: Klucel (hydroxypropylcellulose) (HPC)
[7] = dose: 50.0 mg/kg/injection, schedule: Q01DX001 (ip), vehicle: saline

Nc1ncnc2c1ncn2C1OCC(OCc2ccccc2)C(OCc2ccccc2)C1OCc1ccccc1 (stereo unspecified)
T/C [1]: 98 % of control
T/C (dose: 178.0 mg/kg/injection, schedule: Q01DX001 (ip), vehicle: saline): 97 % of control and 104 % of control
T/C [2]: 98 % of control and 96 % of control
T/C (dose: 267.0 mg/kg/injection, schedule: Q01DX001 (ip), vehicle: saline): 97 % of control and 103 % of control
T/C [3]: 101 % of control and 220 % of control and 93 % of control
T/C (dose: 600.0 mg/kg/injection, schedule: Q01DX001 (ip), vehicle: saline): 97 % of control and 101 % of control

CCCCCCCCCCCCCCCCS(=O)(=O)c1ccc(Cl)cc1
T/C (dose: 100.0 mg/kg/injection, schedule: Q01DX009 (ip), vehicle: gum acacia): 91 % of control
T/C (dose: 100.0 mg/kg/injection, schedule: Q04DX003 (ip), vehicle: gum acacia): 94 % of control
T/C (dose: 200.0 mg/kg/injection, schedule: Q01DX009 (ip), vehicle: gum acacia): 92 % of control
T/C (dose: 200.0 mg/kg/injection, schedule: Q04DX003 (ip), vehicle: gum acacia): 93 % of control
T/C (dose: 400.0 mg/kg/injection, schedule: Q01DX009 (ip), vehicle: gum acacia): 91 % of control
T/C (dose: 400.0 mg/kg/injection, schedule: Q04DX003 (ip), vehicle: gum acacia): 86 % of control

CCC(CO)Nc1nc2cc(Br)ccc2c2ccc(Br)cc12 (stereo unspecified)
T/C [4]: 90 % of control
T/C [5]: 87 % of control
T/C [6]: 94 % of control

CC(=O)C(Cc1ccccc1)(c1ccccc1)c1ccccc1
T/C [7]: 103 % of control
T/C [1]: 103 % of control
T/C [2]: 97 % of control
T/C [3]: 97 % of control

O=S(c1cc(Br)ccc1O)c1cc(Br)ccc1O
T/C (dose: 100.0 mg/kg/injection, schedule: Q01DX001 (ip), vehicle: carboxymethylcellulose (CMC)): 98 % of control
T/C (dose: 200.0 mg/kg/injection, schedule: Q01DX001 (ip), vehicle: carboxymethylcellulose (CMC)): 93 % of control
T/C (dose: 400.0 mg/kg/injection, schedule: Q01DX001 (ip), vehicle: carboxymethylcellulose (CMC)): 90 % of control

C1CC[N+]2(CC1)CCC2
T/C (dose: 12.0 mg/kg/injection, schedule: Q04DX003 (ip), vehicle: saline): 106 % of control
T/C (dose: 12.5 mg/kg/injection, schedule: Q01DX009 (ip), vehicle: saline): 97 % of control
T/C (dose: 25.0 mg/kg/injection, schedule: Q01DX009 (ip), vehicle: saline): 100 % of control
T/C (dose: 25.0 mg/kg/injection, schedule: Q04DX003 (ip), vehicle: saline): 94 % of control
T/C (dose: 50.0 mg/kg/injection, schedule: Q01DX009 (ip), vehicle: saline): 100 % of control
T/C (dose: 50.0 mg/kg/injection, schedule: Q04DX003 (ip), vehicle: saline): 111 % of control
T/C [1]: 107 % of control
T/C [2]: 115 % of control

Cc1cc2cc3ccc(Cl)nn3c2n[n+]1[O-]
T/C (dose: 62.5 mg/kg/injection, schedule: Q04DX002 (ip), vehicle: Klucel (hydroxypropylcellulose) (HPC)): 100 % of control
T/C (dose: 125.0 mg/kg/injection, schedule: Q04DX002 (ip), vehicle: Klucel (hydroxypropylcellulose) (HPC)): 122 % of control

O=c1c2ccccc2[nH]c2ccc(Cl)cc12
T/C (dose: 100.0 mg/kg/injection, schedule: Q01DX009 (ip), vehicle: Klucel (hydroxypropylcellulose) (HPC)): 92 % of control
T/C [4]: 96 % of control
T/C (dose: 200.0 mg/kg/injection, schedule: Q01DX009 (ip), vehicle: Klucel (hydroxypropylcellulose) (HPC)): 96 % of control
T/C [5]: 91 % of control
T/C (dose: 400.0 mg/kg/injection, schedule: Q01DX009 (ip), vehicle: Klucel (hydroxypropylcellulose) (HPC)): 86 % of control
T/C [6]: 100 % of control

CCCCCCCCCCCC(=O)O
T/C (dose: 100.0 mg/kg/injection, schedule: Q01DX009 (ip), vehicle: saline with Tween-80): 92 % of control
T/C (dose: 200.0 mg/kg/injection, schedule: Q01DX009 (ip), vehicle: saline with Tween-80): 106 % of control
T/C (dose: 400.0 mg/kg/injection, schedule: Q01DX009 (ip), vehicle: saline with Tween-80): 96 % of control

CC1(C)CC(=O)C(c2ccccc2[N+](=O)[O-])=C(O)C1
T/C [7]: 102 % of control
T/C [1]: 105 % of control
T/C [2]: 90 % of control
T/C [3]: 94 % of control

Nc1nc(=S)[nH]c(C(=O)O)c1Cc1ccccc1
T/C (dose: 10.0 mg/kg/injection, schedule: Q04DX003 (ip), vehicle: Klucel (hydroxypropylcellulose) (HPC)): 101 % of control
T/C (dose: 20.0 mg/kg/injection, schedule: Q01DX009 (ip), vehicle: Klucel (hydroxypropylcellulose) (HPC)): 92 % of control
T/C (dose: 20.0 mg/kg/injection, schedule: Q04DX003 (ip), vehicle: Klucel (hydroxypropylcellulose) (HPC)): 95 % of control
T/C (dose: 40.0 mg/kg/injection, schedule: Q01DX009 (ip), vehicle: Klucel (hydroxypropylcellulose) (HPC)): 104 % of control
T/C (dose: 40.0 mg/kg/injection, schedule: Q04DX003 (ip), vehicle: Klucel (hydroxypropylcellulose) (HPC)): 98 % of control
T/C (dose: 80.0 mg/kg/injection, schedule: Q01DX009 (ip), vehicle: Klucel (hydroxypropylcellulose) (HPC)): 98 % of control
